Test results: publication PMC7596181 (Frontiers in Immunology, 2020)

Experiments:
human TLR4 [1] = molecular target: T1, human TLR4 (Homo sapiens, UniProt O00206+Q9Y6Y9); test: SEAP assay, agonist dose response in human TLR4 HEK-Blue reporter cells; assay type: cell-based; parameters: host or cells: HEK-Blue (HEK293-derived) reporter cells; conditions: for agonist profile / EC50: human TLR4 HEK-Blue reporter cells; for EC50: read-out: EC50 for stimulation
Experimental: (§1) Human and mouse HEK-Blue reporter cells express human or mouse CD14, MD2, and TLR4 and secreted embryonic alkaline phosphatase (SEAP) under control of a promoter with binding sites for NFκB and AP-1 transcription factors (InvivoGen cat. nos. hkb-htlr4 and hkb-mtlr4). Cells were cultured as directed by the supplier, with the exception that Glutamax (ThermoFisher cat. no. 10569010) was used in place of L-glutamine, and TrypLE Express (ThermoFisher cat. no. 12605010) was used to release adherent cells for each passage. BALB/c mouse RAW264.7 and human THP-1 cells (ATCC® cat. nos. TIB-71 and TIB-202) were cultured in DMEM (4.5 g/L D-Glucose with 2 mM L-glutamine, 1 mM sodium pyruvate, 100 U/ml penicillin and 100 μg/ml streptomycin) supplemented with 10% heat-inactivated FBS. THP-1 cells were exposed to phorbol-12-myristate-13-acetate (PMA, InvivoGen cat no. tlrl-pma), 5 ng/ml, for 48 h prior to treatment with TLR4 agonists. Bone marrow-derived dendritic cells (BMDCs) were generated using C57BL/6 mouse femurs following the exact method published by Lutz et al. ([29]) except that 5 rather than 20 ng/ml recombinant GM-CSF was used to differentiate the DC. Human peripheral blood […] (PBMCs) were prepared from venous blood of healthy volunteers that had been collected using sodium citrate as anti-coagulant, 20 ml of which was mixed with 15 ml calcium- and magnesium-free Hank’s Balanced Saline Solution (HBSS) and then laid over 6 ml Histopaque®-1077 (1.077 g/ml, Sigma-Aldrich cat no. 10771) for density gradient centrifugation. The buffy coat layer was collected by pipette, washed once in HBSS, once in serum-free RPMI-1640, and then the PBMCs were resuspended in RPMI-1640 supplemented with 100 U/ml penicillin, 100 µg/ml streptomycin, 1 mM Na-Pyruvate, 2 mM L-glutamine, 50 μM βME and 10% heat-inactivated, male AB human serum for culture.
(§2) SEAP assays were performed to evaluate the extent to which TLR4 signaling was activated in HEK-Blue reporter cells expressing mouse or human receptors (CD14, MD2 and TLR4). Reporter cells were harvested when 70–80% confluent and plated in 96-well, flat-bottom microtiter plates either 1 h, one day or two days (5 × 10^4, 4 × 10^4 or 2 × 10^4 cells/well, respectively) before addition of TLR4 agonists for 18–24 h. Culture supernatants were transferred to U-bottom microtiter plates, centrifuged and transferred again to microtiter plates to ensure reporter cells were not present. The culture supernatants were added to QUANTI-BLUE substrate following instructions provided by the manufacturer (InvivoGen cat. nos. rep-qbl or rep-qbs) and incubated at 37°C in a tissue culture incubator. At successive intervals beginning 10 min after mixing the supernatants and substrate, the plates were placed in an Emax plate reader (Molecular Devices LLC) and optical density was measured at visible light wavelength […] (OD650). The shortest incubations at which dose response curve fits produced maximal R^2 ‘goodness of fit’ values, as determined by GraphPad Prism software, were used for analysis.
(§3) Pharmacological profiles of the TLR4 reagents were generated by performing dose response curves in one of four formats. 1) Agonist potency and efficacy (EC50 and height of dose plateau, respectively) were measured by diluting TLR4 reagents successively in complete culture medium [DMEM or RPMI supplemented with fetal bovine serum (FBS) or RPMI supplemented with human serum, depending on cell-type]. Half-log step dilutions were performed in 96-well, U-bottom microtiter plates using a multichannel pipette to transfer and mix the suspensions, with fresh tips used for each dilution step. One-tenth (20 μl) volumes from wells of the dilution plate were then transferred to wells containing cells that had been plated in nine-tenth volumes (180 μl) of culture medium. […]

human TLR4 [2] = molecular target: T1, human TLR4; test: Inhibition curves (IC50 format): antagonist diluted in a fixed concentration of reference agonist, human TLR4 HEK-Blue SEAP; assay type: cell-based; parameters: host or cells: HEK-Blue (HEK293-derived) reporter cells; conditions: for inhibition of PHAD stimulation: fixed PHAD 1 μM, 22 h
Experimental: as §2
(§4) Pharmacological profiles of the TLR4 reagents were generated by performing dose response curves in one of four formats. 1) Agonist potency and efficacy (EC50 and height of dose plateau, respectively) were measured by diluting TLR4 reagents successively in complete culture medium [DMEM or RPMI supplemented with fetal bovine serum (FBS) or RPMI supplemented with human serum, depending on cell-type]. Half-log step dilutions were performed in 96-well, U-bottom microtiter plates using a multichannel pipette to transfer and mix the suspensions, with fresh tips used for each dilution step. One-tenth (20 μl) volumes from wells of the dilution plate were then transferred to wells containing cells that had been plated in nine-tenth volumes (180 μl) of culture medium. 2) Mixed agonist–antagonist potency and efficacy were measured by mixing a TLR4 agonist with a candidate antagonist at a fixed ratio and then performing half-log step dilutions before treating HEK reporter cells. Analysis of values obtained from SEAP assays of culture supernatants was then performed as described for preparations containing agonist alone, above. 3) Competitive vs allosteric or non-competitive antagonist type was evaluated by diluting a reference agonist within a fixed concentration of a candidate inhibitor in half-log steps, treating HEK reporter cells, performing SEAP assays and then analyzing the data as described for agonist assays, above. Competitive antagonists are characterized by values that reach the same dose plateau as for a reference, full agonist, while shifting potency to higher EC50 values. […] 4) Inhibitory potency (IC50) was measured by diluting antagonists within a fixed concentration of a reference agonist, treating HEK reporter cells and performing SEAP assays as described.

mouse TLR4 [3] = molecular target: T2, mouse TLR4 (Mus musculus, UniProt Q9JHF9+Q9QUK6); test: SEAP assay, agonist dose response in mouse TLR4 HEK-Blue reporter cells; assay type: cell-based; parameters: host or cells: HEK-Blue (HEK293-derived) reporter cells; conditions: for agonist profile: mouse TLR4 HEK-Blue reporter cells
T2 sequence (Q9QUK6 26-835): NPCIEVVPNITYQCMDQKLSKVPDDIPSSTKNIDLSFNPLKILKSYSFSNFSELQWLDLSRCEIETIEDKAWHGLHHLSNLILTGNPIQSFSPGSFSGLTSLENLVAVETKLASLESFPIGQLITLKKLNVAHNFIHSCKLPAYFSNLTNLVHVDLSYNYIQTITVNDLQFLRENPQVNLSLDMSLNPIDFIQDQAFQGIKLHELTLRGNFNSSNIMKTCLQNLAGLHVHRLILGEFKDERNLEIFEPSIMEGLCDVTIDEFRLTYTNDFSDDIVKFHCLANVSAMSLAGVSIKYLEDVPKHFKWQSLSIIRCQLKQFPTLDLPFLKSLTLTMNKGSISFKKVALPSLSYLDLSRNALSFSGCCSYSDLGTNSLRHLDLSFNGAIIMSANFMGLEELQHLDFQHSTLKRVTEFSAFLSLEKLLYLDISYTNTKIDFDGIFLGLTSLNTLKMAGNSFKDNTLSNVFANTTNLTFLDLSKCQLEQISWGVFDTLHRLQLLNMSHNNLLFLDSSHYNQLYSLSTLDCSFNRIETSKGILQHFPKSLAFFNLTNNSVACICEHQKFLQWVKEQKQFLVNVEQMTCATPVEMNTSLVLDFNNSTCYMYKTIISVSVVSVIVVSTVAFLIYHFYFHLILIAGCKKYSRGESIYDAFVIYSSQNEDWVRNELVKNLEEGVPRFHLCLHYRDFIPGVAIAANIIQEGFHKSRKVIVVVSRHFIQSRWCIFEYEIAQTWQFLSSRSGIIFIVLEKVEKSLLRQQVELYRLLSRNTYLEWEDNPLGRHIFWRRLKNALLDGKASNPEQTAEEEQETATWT
T2 sequence (Q9JHF9 19-160): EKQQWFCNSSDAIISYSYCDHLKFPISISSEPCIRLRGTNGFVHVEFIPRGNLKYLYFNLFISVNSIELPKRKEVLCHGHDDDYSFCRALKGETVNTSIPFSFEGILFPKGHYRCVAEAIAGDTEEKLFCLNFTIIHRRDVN
Experimental: as §1, §2, §3

human TLR4 [4] = molecular target: T1, human TLR4; parameters: method as in PMID 1918061; conditions: cited from earlier work
mouse TLR4 [5] = molecular target: T2, mouse TLR4; parameters: method as in PMID 1918061; conditions: cited from earlier work
human TLR4 [6] = molecular target: T1, human TLR4; test: Competitive vs non-competitive antagonist type: agonist diluted in a fixed concentration of inhibitor, human TLR4 HEK-Blue SEAP; assay type: cell-based; parameters: host or cells: HEK-Blue (HEK293-derived) reporter cells; conditions: fixed ML3 3 μM, ML4A 3 μM or Lipid IVa 0.1 μM; agonist PHAD or 3D-6A-PHAD diluted from 10 μM
Experimental: as §2
Pharmacological profiles of the TLR4 reagents were generated by performing dose response curves in one of four formats. 1) Agonist potency and efficacy (EC50 and height of dose plateau, respectively) were measured by diluting TLR4 reagents successively in complete culture medium [DMEM or RPMI supplemented with fetal bovine serum (FBS) or RPMI supplemented with human serum, depending on cell-type]. […] 2) Mixed agonist–antagonist potency and efficacy were measured by mixing a TLR4 agonist with a candidate antagonist at a fixed ratio and then performing half-log step dilutions before treating HEK reporter cells. […] 4) Inhibitory potency (IC50) was measured by diluting antagonists within a fixed concentration of a reference agonist, treating HEK reporter cells and performing SEAP assays as described.

human TLR4 [7] = molecular target: T1, human TLR4; test: Mixed agonist-antagonist dose curves at fixed ratio, human TLR4 HEK-Blue SEAP; assay type: cell-based; parameters: host or cells: HEK-Blue (HEK293-derived) reporter cells
Experimental: as §2, §4

T1 sequence (O00206 24-839): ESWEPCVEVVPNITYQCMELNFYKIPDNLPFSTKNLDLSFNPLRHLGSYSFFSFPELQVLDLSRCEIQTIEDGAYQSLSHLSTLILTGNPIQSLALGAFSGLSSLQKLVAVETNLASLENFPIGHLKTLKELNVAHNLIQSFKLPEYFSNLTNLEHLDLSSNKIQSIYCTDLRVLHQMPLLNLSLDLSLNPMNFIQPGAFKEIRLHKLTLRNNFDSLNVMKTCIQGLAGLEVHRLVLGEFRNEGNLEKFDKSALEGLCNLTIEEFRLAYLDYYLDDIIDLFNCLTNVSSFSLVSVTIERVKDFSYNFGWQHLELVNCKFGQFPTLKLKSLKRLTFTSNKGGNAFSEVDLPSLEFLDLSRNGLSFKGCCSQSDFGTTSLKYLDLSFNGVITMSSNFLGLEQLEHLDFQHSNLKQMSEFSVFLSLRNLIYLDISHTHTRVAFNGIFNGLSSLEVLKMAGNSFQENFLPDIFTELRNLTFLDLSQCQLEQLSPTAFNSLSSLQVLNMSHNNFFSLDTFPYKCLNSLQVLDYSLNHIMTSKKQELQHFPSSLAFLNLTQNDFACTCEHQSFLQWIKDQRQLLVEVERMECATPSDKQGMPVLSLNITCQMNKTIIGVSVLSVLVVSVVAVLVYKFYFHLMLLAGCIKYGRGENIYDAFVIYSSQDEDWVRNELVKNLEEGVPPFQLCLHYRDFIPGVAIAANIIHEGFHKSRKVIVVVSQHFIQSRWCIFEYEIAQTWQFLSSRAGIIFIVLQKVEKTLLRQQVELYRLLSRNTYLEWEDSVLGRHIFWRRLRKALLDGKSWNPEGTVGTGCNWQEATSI
T1 sequence (Q9Y6Y9 17-160 limits assumed): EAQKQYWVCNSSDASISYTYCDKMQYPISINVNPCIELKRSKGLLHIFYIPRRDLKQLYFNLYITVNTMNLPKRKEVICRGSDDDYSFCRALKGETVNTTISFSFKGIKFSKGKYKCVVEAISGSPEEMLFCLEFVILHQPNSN

Row | Structure (SMILES) | agonist profile (human TLR4 [1]) | inhibition of PHAD stimulation (human TLR4 [2]) | EC50 (human TLR4 [1]) [nM] | agonist profile (mouse TLR4 [3]) | further results
1 | CCCCCCCCCCCCCCCC(=O)OC(CCCCCCCCCCC)CC(=O)NC1C(O)OC(COC2OC(CO)C(OP(=O)(O)O)C(OC(=O)CC(CCCCCCCCCCC)OC(=O)CCCCCCCCCCCCC)C2NC(=O)CC(CCCCCCCCCCC)OC(=O)CCCCCCCCCCC)C(O)C1O (stereo not shown) [ML6] | weaker agonists of human TLR4 than of mouse TLR4 | only ML3 and ML4A showed inhibitory potential |  |  | 
2 | CCCCCCCCCCCCCC(=O)O[C@H](CCCCCCCCCCC)CC(=O)N[C@H]1[C@H](OC[C@H]2OC(O)[C@H](NC(=O)C[C@H](O)CCCCCCCCCCC)[C@@H](OC(=O)C[C@H](O)CCCCCCCCCCC)[C@@H]2O)O[C@H](CO)[C@@H](OP(=O)(O)O)[C@@H]1OC(=O)C[C@@H](CCCCCCCCCCC)OC(=O)CCCCCCCCCCCCC (stereo partly shown) [PHAD, phosphorylated hexa-acyl disaccharide, reference compound] | weak yet full agonist of both mouse and human TLR4 |  | 30 | weak yet full agonist of both mouse and human TLR4 | 
3 | CCCCCCCCCCCCCC(=O)O[C@H](CCCCCCCCCCC)CC(=O)O[C@@H]1[C@@H](NC(=O)C[C@@H](CCCCCCCCCCC)OC(=O)CCCCCCCCCCC)[C@H](OC[C@H]2O[C@H](OP(=O)(O)O)[C@H](NC(=O)C[C@H](O)CCCCCCCCCCC)[C@@H](OC(=O)C[C@H](O)CCCCCCCCCCC)[C@@H]2O)O[C@H](CO)[C@H]1OP(=O)(O)O [Lipid A, reference compound] | most potent of the agonists tested |  |  | most potent of the agonists tested | ED50 (95% CI) (human TLR4 [1]; human TLR4 reporter cells, stimulatory curve fit, Figure 3C): 1.0 (0.8-1.1) ng/mL; ED50 (95% CI) (mouse TLR4 [3]; mouse Tlr4 reporter cells, stimulatory curve fit, Figure 3C): 0.7 (0.5-0.9) ng/mL
4 | CCCCCCCCCCCCCC(=O)OC(CCCCCCCCCCC)CC(=O)OC1C(NC(=O)CC(CCCCCCCCCCC)OC(=O)CCCCCCCCCCC)C(OCC2OC(O)C(NC(=O)CC(O)CCCCCCCCCCC)C(O)C2O)OC(CO)C1OP(=O)(O)O (stereo not shown) [ML5A] | weaker agonists of human TLR4 than of mouse TLR4 | only ML3 and ML4A showed inhibitory potential |  |  | 
5 | CCCCCCCCCCCCCC(=O)OC(CCCCCCCCCCC)CC(=O)NC1C(O)OC(COC2OC(CO)C(OP(=O)(O)O)C(OC(=O)CC(CCCCCCCCCCC)OC(=O)CCCCCCCCCCCCC)C2NC(=O)CC(CCCCCCCCCCC)OC(=O)CCCCCCCCCCCCC)C(O)C1O (stereo not shown) [3D-6A-PHAD, reference compound] |  |  | 300 |  | 
6 | CCCCCCCCCCC[C@@H](O)CC(=O)N[C@H]1[C@H](OC[C@H]2O[C@H](OP(=O)(O)O)[C@H](NC(=O)C[C@H](O)CCCCCCCCCCC)[C@@H](OC(=O)C[C@H](O)CCCCCCCCCCC)[C@@H]2O)O[C@H](CO)[C@@H](OP(=O)(O)O)[C@@H]1OC(=O)C[C@H](O)CCCCCCCCCCC [Lipid IVa, reference compound] |  |  |  |  | activity on human TLR4 (human TLR4 [4]): competitive antagonist of human TLR4; activity on mouse TLR4 (mouse TLR4 [5]): agonist of mouse TLR4; inhibition of 3D-6A-PHAD stimulation (human TLR4 [2]; fixed 3D-6A-PHAD 300 nM): functioned as inhibitors; IC50 (human TLR4 [2]; fixed PHAD 30 nM, 95% CI given): 0.19 nM; antagonist type (human TLR4 [6]): competitive antagonist curve; effect on agonist dose curve in fixed-ratio mixture (human TLR4 [7]; mixed with PHAD at 1:60 or 1:20 antagonist:agonist): clearly flatted; effect on agonist dose curve in fixed-ratio mixture (human TLR4 [7]; mixed with PHAD at 1:180 antagonist:agonist): trending to a flattened curve
